biological target: SIK2 (Homo sapiens, UniProt Q9H0K1); assay: SIK2 Enzymatic Assay High Version 2 (High ATP); format: biochemical; settings: not given
How it was run: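 At room temperature, enzyme (6 nM, 2× final) was preincubated with compound for 30 min, then 6 mM ATP and 400 μM HDAC5tide (both 2× final) were added for 2 h. ADP formed was measured by ADP-Glo Max (2 h reagent, 1 h detection) using luminescence.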

SIK2, sequence (Q9H0K1 whole entry, species assumed): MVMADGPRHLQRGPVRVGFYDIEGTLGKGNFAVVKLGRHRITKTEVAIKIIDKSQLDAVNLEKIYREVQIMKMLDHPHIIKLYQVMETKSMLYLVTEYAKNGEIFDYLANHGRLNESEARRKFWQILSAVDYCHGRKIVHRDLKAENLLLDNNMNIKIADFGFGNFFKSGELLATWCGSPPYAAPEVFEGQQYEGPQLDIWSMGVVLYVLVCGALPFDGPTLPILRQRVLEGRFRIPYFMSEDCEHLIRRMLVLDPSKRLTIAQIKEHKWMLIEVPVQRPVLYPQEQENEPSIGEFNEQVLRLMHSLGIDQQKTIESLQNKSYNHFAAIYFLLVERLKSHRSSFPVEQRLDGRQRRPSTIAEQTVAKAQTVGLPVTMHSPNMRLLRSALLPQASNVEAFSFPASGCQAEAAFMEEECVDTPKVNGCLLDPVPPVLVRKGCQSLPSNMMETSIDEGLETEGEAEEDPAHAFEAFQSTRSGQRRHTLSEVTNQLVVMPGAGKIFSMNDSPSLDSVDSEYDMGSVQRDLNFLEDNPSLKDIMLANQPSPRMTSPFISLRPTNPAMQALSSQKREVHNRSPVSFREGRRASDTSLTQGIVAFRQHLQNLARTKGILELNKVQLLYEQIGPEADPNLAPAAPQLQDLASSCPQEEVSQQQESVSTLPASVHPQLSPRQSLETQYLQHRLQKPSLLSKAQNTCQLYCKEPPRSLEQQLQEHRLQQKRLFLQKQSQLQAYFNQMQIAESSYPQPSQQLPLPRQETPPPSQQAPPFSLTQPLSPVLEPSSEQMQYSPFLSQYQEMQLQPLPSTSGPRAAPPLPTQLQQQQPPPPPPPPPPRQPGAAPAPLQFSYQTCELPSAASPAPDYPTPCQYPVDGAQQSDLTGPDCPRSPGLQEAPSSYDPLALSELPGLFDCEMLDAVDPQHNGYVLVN

Compound | IC50 [µM]
Cc1cc(-c2ccn3nc(Nc4cnccn4)cc3c2)c(O[C@H]2C[C@H]3COC[C@@H](C2)N3C)cn1 [Example 418, 5-[2-methyl-5-[[(1S,5R,7s)-9-methyl-3-oxa-9-azabicyclo[3.3.1]nonan-7-yl]oxy]-4-pyridyl]-N-pyrazin-2-yl-pyrazolo[1,5-a]pyridin-2-amine] | < 0.000847
Cc1cc(-c2ccn3nc(Nc4cn(C)nc4F)cc3c2)c(O[C@H]2C[C@H]3COC[C@@H](C2)N3C)cn1 [Example 412, N-(3-fluoro-1-methyl-pyrazol-4-yl)-5-[2-methyl-5-[[(1S,5R,7s)-9-methyl-3-oxa-9-azabicyclo[3.3.1]nonan-7-yl]oxy]-4-pyridyl]pyrazolo[1,5-a]pyridin-2-amine] | 0.000883
CNC(=O)c1ccnc(Nc2cc3cc(-c4cc(C)ncc4O[C@H]4C[C@H]5COC[C@@H](C4)N5S(=O)(=O)C4CC4)ccn3n2)c1 [Example 635, 2-((5-(5-(((1R,5S,7s)-9-(cyclopropylsulfonyl)-3-oxa-9-azabicyclo[3.3.1]nonan-7-yl)oxy)-2-methylpyridin-4-yl)pyrazolo[1,5-a]pyridin-2-yl)amino)-N-methylisonicotinamide] | 0.00197
Cc1cc(-c2ccn3nc(Nc4cc(C)nc(C)n4)cc3c2)c(OCC2CNS(=O)(=O)N2)cn1 (racemic) [Example 352, (rac-)-N-(2,6-dimethylpyrimidin-4-yl)-5-[5-[(1,1-dioxo-1,2,5-thiadiazolidin-3-yl)methoxy]-2-methyl-4-pyridyl]pyrazolo[1,5-a]pyridin-2-amine] | 0.0031
CCNC(=O)c1cnc(Nc2cc3cc(-c4cc(C)ncc4O[C@H]4C[C@H]5COC[C@@H](C4)N5)ccn3n2)cn1 [Example 386, N-ethyl-5-[[5-[2-methyl-5-[[(1S,5R,7s)-3-oxa-9-azabicyclo[3.3.1]nonan-7-yl]oxy]-4-pyridyl]pyrazolo[1,5-a]pyridin-2-yl]amino]pyrazine-2-carboxamide] | 0.00131
Cc1cc(-c2ccn3nc(Nc4cc(C(F)(F)F)n(C)n4)cc3c2)c(O[C@H]2C[C@H]3COC[C@@H](C2)N3)cn1 [Example 379, 5-[2-methyl-5-[[(1S,5R,7s)-3-oxa-9-azabicyclo[3.3.1]nonan-7-yl]oxy]-4-pyridyl]-N-[1-methyl-5-(trifluoromethyl)pyrazol-3-yl]pyrazolo[1,5-a]pyridin-2-amine] | 0.00125
Cc1cc(-c2ccn3nc(Nc4ccc(F)cn4)cc3c2)c(O[C@H]2C[C@H]3COC[C@@H](C2)N3C)cn1 [Example 126] | < 0.000847
Cc1cc(-c2ccn3nc(Nc4ccn(C)n4)cc3c2)c(OC[C@H]2CNCCO2)cn1 [Example 429, 5-[2-methyl-5-[[(2R)-morpholin-2-yl]methoxy]-4-pyridyl]-N-(1-methylpyrazol-3-yl)pyrazolo[1,5-a]pyridin-2-amine] | 0.0122

same assay, conditions: enzyme 6 nM, 6 mM ATP and 400 μM HDAC5tide (each 2× final concentration); 30 minutes pre-incubation, 2 hours; ADP-Glo Max luminescence; read-out: SIK2 high ATP IC50 (μM) (Test Example 2)

Compound | IC50 [µM]
Cc1cc(-c2ccn3nc(Nc4cc(C)nc(C)n4)cc3c2)c(OCc2cccc(O)c2)cn1 [Example 272, 3-[[4-[2-[(2,6-dimethylpyrimidin-4-yl)amino]pyrazolo[1,5-a]pyridin-5-yl]-6-methyl-3-pyridyl]oxymethyl]phenol] | 0.00876
Cc1cc(-c2ccn3nc(NC(=O)C4CC4)cc3c2)c(OC[C@]2(C#N)CCNC2)cn1 (single isomer, unassigned) [Example 211, (*R)—N-[5-[5-[[(3R)-3-cyanopyrrolidin-3-yl]methoxy]-2-methyl-4-pyridyl]pyrazolo[1,5-a]pyridin-2-yl]cyclopropanecarboxamide] | 0.013
CC#Cc1cc(-c2ccn3nc(Nc4ccn(C)n4)cc3c2)c(OC[C@H]2OCC[C@@H]2O)cn1 [Example 301, (2R,3S)-2-[[4-[2-[(1-methylpyrazol-3-yl)amino]pyrazolo[1,5-a]pyridin-5-yl]-6-prop-1-ynyl-3-pyridyl]oxymethyl]tetrahydrofuran-3-ol] | 0.00773
Cc1cc(-c2ccn3nc(NC(=O)C4CC4)cc3c2)c(OC[C@]2(C#N)CCN(C)C2)cn1 (single isomer, unassigned) [Example 213, (*R)—N-[5-[5-[(3-cyano-1-methyl-pyrrolidin-3-yl)methoxy]-2-methyl-4-pyridyl]pyrazolo[1,5-a]pyridin-2-yl]cyclopropanecarboxamide] | 0.0505
CCc1nc(C)cc(Nc2cc3cc(-c4cc(C)ncc4OCC(C)(C)O)ccn3n2)n1 [Example 202, 1-[[4-[2-[(2-ethyl-6-methyl-pyrimidin-4-yl)amino]pyrazolo[1,5-a]pyridin-5-yl]-6-methyl-3-pyridyl]oxy]-2-methyl-propan-2-ol] | 0.00758
Cc1cc(-c2ccn3nc(NC(=O)C4CC4)cc3c2)c(OC[C@](C)(O)C(F)(F)F)cn1 (single isomer, unassigned) [Example 190, (*S)—N-(5-(2-methyl-5-(3,3,3-trifluoro-2-hydroxy-2-methylpropoxy)pyridin-4-yl)pyrazolo[1,5-a]pyridin-2-yl)cyclopropanecarboxamide] | 0.0255
Cc1cc(-c2ccn3nc(Nc4cc(C)c(=O)n(C)n4)cc3c2)c(O[C@H]2CC[C@@H](S(C)(=O)=O)CC2)cn1 [Example 305, 2,4-dimethyl-6-((5-(2-methyl-5-(((1s,4s)-4-(methylsulfonyl)cyclohexyl)oxy)pyridin-4-yl)pyrazolo[1,5-a]pyridin-2-yl)amino)pyridazin-3(2H)-one] | 0.00117
Cc1cc(Nc2cc3cc(-c4cc(OCCO)ncc4OCC(C)(C)C#N)ccn3n2)nc(C)n1 [Example 678, 3-[[4-[2-[(2,6-dimethylpyrimidin-4-yl)amino]pyrazolo[1,5-a]pyridin-5-yl]-6-(2-hydroxyethoxy)-3-pyridyl]oxy]-2,2-dimethyl-propanenitrile] | 0.0443
Cc1cc(-c2cn3cc(Nc4cc(C)nc(C)n4)nc3cn2)c(O[C@H]2CC[C@@H](O)CC2)cn1 [Example 506, 4-[[4-[2-[(2,6-dimethylpyrimidin-4-yl)amino]imidazo[1,2-a]pyrazin-6-yl]-6-methyl-3-pyridyl]oxy]cyclohexanol] | 0.0178
(*S)-4-[[6-(difluoromethoxy)-4-[2-[(2,6-dimethylpyrimidin-4-yl)amino]pyrazolo[1,5-a]pyridin-5-yl]-3-pyridyl]oxymethyl]-1,5,5-trimethyl-pyrrolidin-2-one [Example 741] | 0.00266
Cn1nc(Nc2cc3cc(-c4cc(OC(F)F)ncc4OCC(C)(C)C#N)ccn3n2)ccc1=O [Example 702, 3-[[6-(difluoromethoxy)-4-[2-[(1-methyl-6-oxo-pyridazin-3-yl)amino]pyrazolo[1,5-a]pyridin-5-yl]-3-pyridyl]oxy]-2,2-dimethyl-propanenitrile] | 0.00317
COc1cc(-c2ccn3nc(Nc4cc(C)nc(C)n4)cc3c2)c(OC[C@@H]2CNCCO2)cn1 [Example 496, N-(2,6-dimethylpyrimidin-4-yl)-5-[2-methoxy-5-[[(2S)-morpholin-2-yl]methoxy]-4-pyridyl]pyrazolo[1,5-a]pyridin-2-amine] | 0.00143
Cc1cc(-c2ccn3nc(Nc4ccncn4)cc3c2)c(OC[C@@H]2CNCCO2)cn1 [Example 132, 5-[2-methyl-5-[[(2S)-morpholin-2-yl]methoxy]-4-pyridyl]-N-pyrimidin-4-yl-pyrazolo[1,5-a]pyridin-2-amine] | 0.00951

Reference: patent US20240158392A1 (Janssen Biotech, Inc., priority 2021, published 2024)
